Values quoted from earlier work, collected in publication PMC8155967, “Investigating the Potential of Transdermal Delivery of Avanafil Using Vitamin E-TPGS Based Mixed Micelles Loaded Films” (Pharmaceutics, 2021).
≈ marks a conversion by molar mass, not a printed value.

Which partition coefficient does the source give for `COc1ccc(CN=c2[nH]c(N3CCC[C@H]3CO)ncc2C(=O)NCc2ncccn2)cc1Cl` [AVA, Avanafil] here?
Its partition coefficient is 2.78.

What about the solubility in water of the same compound?
Its solubility in water is 30 µg/mL (≈ 62 µM).
